In patent publication US10125183B2, “Decoy peptides inhibiting binding of AMIGO2 and 3-phosphoinositide-dependent kinase 1” (Curacle Co., Ltd., priority 2015, dated 2018):
Each block holds one molecule with its values, some of them ahead of it. Where no end group is shown, it is not given here.

How the values were obtained:
HUVECs [1] = experiment: FAK immunostaining, F-actin staining and apoptosis markers in siRNA-transfected HUVECs; format: cell-based, human
Method: (§1) HUVECs were transfected with scrambled (control) and human AMIGO2 siRNAs using Lipofectamine® (Invitrogen) for 3 h, and cells were assayed 48 h after transfection. Human AMIGO2 siRNA was designed by Invitrogen using the following sequences: 5′-[…]-3′ (SEQ ID NO: 8) and 5′-[…]-3′ (SEQ ID NO: 9). HUVECs were transfected with EGFP-tagged plasmids using Lipofectamine® LTX and PLUS™ (Invitrogen) for 2 h, and cells were assayed 24 h after transfection.
HUVECs were fixed in 3.7% formaldehyde for 10 min and permeabilized with 0.1% Triton X-100 on the ice. Cells were labeled with anti-FAK antibody (Santa Cruz Biotechnology), anti-PDK1 antibody (Cell Signaling Technology), anti-Akt antibody (Cell Signaling Technology), and anti-AMIGO2 antibody (Abcam) for 2 h at room temperature or overnight at 4° C. Afterwards, the cells were incubated with Alexa 488 and Alexa 546 secondary antibodies (Invitrogen) for 60 min at room temperature, and were then examined under a confocal microscope (LSM 700 META; Carl Zeiss).

HUVECs [2] = experiment: HUVEC cell viability with or without VEGF; format: cell-based, human; conditions: in the presence or absence of VEGF
Method: Endothelial progenitor cells (EPC) were isolated from human umbilical cord blood as previously described (Maeng et al., 2009). Briefly, human umbilical cord blood samples (approximately 50 mL each) were collected from fresh placentas with attached umbilical cords by gravity flow. Human umbilical vein endothelial cells (HUVECs) were isolated from human umbilical cord veins using collagenase as described previously (Marin et al., 2001), and cells from passages three to six were used. HUVECs were cultured on 2% gelatin-coated dishes at 37° C. in a 5% CO2-humidified atmosphere using M199 medium (HyClone) containing 20% fetal bovine serum (FBS), 100 U/mL penicillin, 100 μg/mL streptomycin, 3 ng/mL bFGF (Upstate Biotechnology), and 5 U/mL heparin.
The PTD-A2 of FITC-linker-YGRKKRRQRRR-GKRVVFLEPLKDTA (SEQ ID NO: 37) (decoy peptide) and the control peptide (FITC-linker-YGRKKRRQRRR-GRVKTDFLAVPEKL (SEQ ID NO: 38)) (Con-pep) were obtained from Peptron. The experiment was performed using 5 μM concentration in vitro, 4 mg/kg was used for an animal experiment. Peptide treated HUVECs were incubated with serum-free M199 medium at 37° C.

HUVECs [3] = experiment: EC adhesion assay; format: cell-based, human; conditions: siRNA-transfected HUVECs
Method: as §1
HUVECs transfected with siRNA were trypsinized and washed twice in phenol-free M199. Prior to seeding, a 96-well plate was coated with 2% gelatin, fibronectin (3 μg/ml in PBS), and collagen type I (10 μg/ml in PBS), and incubated at 37° C. for 1 h in a humidified incubator. Prior to the initiation of the experiments, the wells were rinsed twice with PBS. HUVECs were labeled with calcein AM, and 1.5×10^4 cells were seeded into each well of the 96-well plates. Cells were incubated for 1 h at 37° C., and non-adherent, calcein-labeled cells were removed by four washes. M199 containing 20% FBS was added to the cells in each well, and the fluorescence was measured (maximum absorbance at 494 nm and maximum emission at 517 nm) using a fluorescein filter set by FLUOstar Omega (BGM LABTECH).

Akt = experiment: Endogenous Akt signaling in AMIGO2 siRNA-transfected HUVECs; format: cell-based, human
Method: as §1

PH domain of PDK1 = target: T1, PH domain of PDK1 (Homo sapiens, UniProt O15530); experiment: Pull-down assay and Far-western analysis of truncated AMIGO2 CD mutants; format: binding; conditions: purified GST-tagged proteins
T1 construct: the purified His-tagged PH domain proteins were incubated with Ni^2+-NTA resins; made in house; host or cells: Escherichia coli BL21
T1 sequence (O15530 409-556): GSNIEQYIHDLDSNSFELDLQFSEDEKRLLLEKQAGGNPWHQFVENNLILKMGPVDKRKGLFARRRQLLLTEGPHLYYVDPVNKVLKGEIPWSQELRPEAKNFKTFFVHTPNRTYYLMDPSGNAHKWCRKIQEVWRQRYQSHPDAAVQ
Method: GST-CD, 420-484, 420-474, 420-464 and 420-454 were prepared with vector plasmids of pGEX 4T1 and pET32a followed by the preparation of His-PH.BamH1 (5′-[…]-3′) (SEQ ID NO: 29) and Xho1 (5′-[…]-3′ (SEQ ID NO: 30), CD; 5′-[…]-3′ (SEQ ID NO: 31), 420-484; 5′-[…]-3′ (SEQ ID NO: 32), 420-474; 5′-[…]-3′ (SEQ ID NO: 33), 420-464; and 5′-[…]-3′ (SEQ ID NO: 34), 420-454) were used, and BamH1 (5′-[…]-3′ (SEQ ID NO: 35)) and Xho1 (5′-[…]-3′ (SEQ ID NO: 36)) were used for preparing His-PH. The proteins were expressed in Escherichia coli BL21, and purified with glutathione-Sepharose 4B resin and Ni2+-NTA-agarose.
GST and His-fused proteins (1.5 mg/ml:1.5 mg/ml) were incubated for 2 h at 4° C., immobilized on Ni^2+-NTA resin or glutathione-Sepharose 4B beads, and incubated for 30 min. Proteins were then eluted with elution buffer (25 mM NaPi, 300 mM NaCl, 5 mM β-mercaptoethanol, 500 mM imidazole, pH 7.5), western blot was performed with anti-GST and His antibodies.
Far-western analysis was performed as previously described (Wu et al., 2007). Briefly, purified GST-tagged proteins (1 μg) were loaded and separated, and then transferred to PVDF membranes. The membranes were denatured and renatured, incubated with purified His-tagged PH domain proteins (10 μg), and then detected with anti-His antibody.

AMIGO2 = experiment: In vivo siRNA injection and analysis of hyaloid vessels and retinas; design: species or system mouse
Method: The sequence 5′-[…]-3′ (SEQ ID NO: 28) (mouse AMIGO2 siRNA, Dharmacon) was mixed with the TransIT®-QR Starter Kit (Mirus), and subcutaneously injected to each mouse (5 μg/P3.5 mouse) (Behlke, 2006; Bonifazi et al., 2010; Inaba et al., 2012; Mammoto et al., 2009). Hyaloid vessels and retinas were prepared as previously described (Lobov et al., 2005). After 2 days, the differences of protein change, retina, and hyaloid vessels were analyzed.

[4] = subcutaneous injection, 5 μg/P3.5 mouse, after 2 days

Molecule: 5′-UUAGGAUGCCCUCAGCUAUCACUGC-3′ (SEQ ID NO: 8) and 5′-AUUGUUGUAAAGCAGAAGCACUUCC-3′ (SEQ ID NO: 9) [AMIGO2 siRNA]
- active caspase-3 and FAK fragments (HUVECs [1]): detected
- expression of FAK (immunostaining) (HUVECs [1]): low
- F-actin depolymerization (HUVECs [1]; rhodamine-phalloidin staining): exhibited F-actin depolymerization
- cell viability of siRNA-transfected HUVECs (HUVECs [2]): decreased
- adhesion on ECM substrates (gelatin, fibronectin, collagen type I) (HUVECs [3]): reduced
- Akt phosphorylation (Thr308 and Ser473) (Akt): reduced

Molecule: 5′-UUGUACAAAAGAUCUCGCUGA-3′ (SEQ ID NO: 28) [AMIGO2-specific siRNA]
- Akt phosphorylation in hyaloid vessels and retinas (AMIGO2; Amigo2-depleted mice): decreased
- expression of AMIGO2 in vivo (AMIGO2; subcutaneous injection, 5 μg/P3.5 mouse): decreased
- hyaloid vessel structure (AMIGO2; [4]): significant decreases
- retinal vessel growth and vascular areas (AMIGO2; [4]): reduced

The next lines start with the values.

- direct interaction with purified His-PDK1 PH (PH domain of PDK1): directly interacted
Molecule: 420-474: purified GST-tagged truncated mutant of the AMIGO2 cytosolic domain, residues 420-474 (TPCPCKCKTKRQKNMLHQSNAHSSILSPGPASDASADERKAGAGKRVVFLEPLKD; cysteine pairing not given here; also: GST-tagged)

- direct interaction with purified His-PDK1 PH (PH domain of PDK1): directly interacted
B1: 420-484: purified GST-tagged truncated mutant of the AMIGO2 cytosolic domain, residues 420-484 (protein)
chain: TPCPCKCKTKRQKNMLHQSNAHSSILSPGPASDASADERKAGAGKRVVFLEPLKDTAAGQNGKVR
modifications: also: GST-tagged

- direct interaction with purified His-PDK1 PH (PH domain of PDK1): directly interacted
B2: GST-tagged AMIGO2^CD: purified GST-tagged cytosolic domain of AMIGO2 (420-522aa) (protein)
chain: TPCPCKCKTKRQKNMLHQSNAHSSILSPGPASDASADERKAGAGKRVVFLEPLKDTAAGQNGKVRLFPSEAVIAEGILKSTRGKSDSDSVNSVFSDTPFVAST
modifications: left off: a dimerising Fc or GST
